Series [1] is described as follows: Metabolic stability using human liver microsomes. It counts as in vitro ADME. Particulars: pH 7.4; human liver microsomes 0.5 mg/mL, compound 1 μM, NADPH 1 mM, 37° C.; read-out: Clearance. As to the method: Examination of Metabolic Stability Using Human Liver Microsomes
In 0.1 M phosphate buffer (pH7.4), human liver microsomes were incubated with a compound or a comparative example in the coexistence of NADPH at 37° C. for a specified amount of time. The concentration of the parent compound at each reaction time was measured using LC/MS/MS, and inherent clearance (μL/min/mg protein) was calculated from the slope of the reaction time versus residual rate.
(§1) Compound concentration: 1 μM
Reaction time: 0, 5, 15, and 30 minutes
(In general: Liver microsomes are a subcellular fraction often used to study metabolism.)

A short description of series [2]: Metabolic stability using rat hepatocyte. It counts as in vitro ADME. The following applies: for hepatocyte CLint at 1 μM: rat (SD, female) hepatocytes 1×10^6 cells/mL, compound 1 μM, 37° C., read-out: Clearance; for rat hepatocyte metabolic stability compared to Comparative Examples 1, 2, 3, 5, and 6: rat hepatocytes. The protocol:
Examination of Metabolic Stability Using Rat Hepatocyte
Liver cells were prepared from the liver of rats (SD, female) by a collagenase perfusion method. A compound of the Examples or a Comparative Example was added, and this was incubated at 37° C. for a specified amount of time, followed by addition of a reaction-stopping solution. The concentration of the parent compound at each reaction time was measured using LC/MS/MS, and inherent clearance (μL/10^6 cells/min) was calculated from the slope of the reaction time versus residual rate.
Cell concentration: 1×10^6 cells/mL
as §1
Medium: Williams' medium E
Reaction-stopping solution: acetonitrile/2-propanol (4/6, v/v)

Series [3] concerns the target human PTH1R (Homo sapiens (Human), UniProt Q03431). The series can be described thus: In vitro cAMP signal activity via the human PTH1R (HKRK-B7 cells). It counts as cell-based. Particulars: 100 nM human PTH(1-34) = 100%; for EC20: concentration giving 20% cAMP signaling activity; for EC50: concentration giving 50% cAMP signaling activity. The protocol:
Measurement of In Vitro cAMP Signal Activity of Compounds Via the Human PTH1R
Human PTH(1-34) and calcitonin were purchased from Peptide Institute, Inc. (Osaka, Japan), dissolved in 10 mM acetic acid to 1 mM and stored in a −80° C. freezer.
Cells were cultured in Dulbecco's modified Eagle's medium (DMEM) supplemented with 10% fetal bovine serum (Hyclone), 100 units/ml penicillin G and 100 μg/ml streptomycin sulfate (Invitrogen Corp) at 37° C. in a humidified atmosphere containing 5% CO2.
cAMP signal transduction analysis utilized LLC-PK1 cells not expressing the PTH1R, and HKRK-B7 cells, that is, LLC-PK1 cells overexpressing the human PTH1R at 9.5×10^5 receptors/cell (Takasu et al., J. Bone. Miner. Res. 14:11-20, 1999).
HKRK-B7 or LLC-PK1 cells were seeded into a 96-well plate at 1×10^5 cells/well and incubated overnight. On the following day, 50 μl of cAMP assay buffer (DMEM, 2 mM IBMX, 0.2 mg/ml bovine serum albumin, 35 mM Hepes-NaOH, pH 7.4) containing human PTH(1-34) or each compound was added and the plate was placed in a 37° C. incubator. The cells were incubated for 20 minutes. After removing the medium, the cells were washed with 100 μl of cAMP assay buffer once. The plate was placed on dry ice powder to freeze the cells and then removed from the dry ice. The cells were lysed with 40 μl of 50 mM HCl and frozen again on dry ice. The amount of intracellular cAMP produced was measured using a commercially available cAMP EIA kit (Biotrack cAMP EIA system, GE health care).
Analyses were performed using a variable gradient S-shaped dose-response curve equation.

The test system of series [4] is TPTX rat model. The series can be described thus: Calcemic action in the TPTX rat model. It counts as in vivo. The following applies: TPTX rats, oral 30 mg/kg. As to the method:
Calcemic Action in the TPTX Rat Model
Four-week old female Crl:CD(SD) rats were obtained from Charles River Japan (Atsugi Breeding Center), and were acclimated to standard laboratory conditions of 20-26° C. and 35-75% humidity for one week. The rats were given tap water and were fed ad libitum with standard rodent chow (CE-2) (CLEA Japan, Inc.) containing 1.1% calcium, 1.0% phosphoric acid, and 250 IU/100 g of vitamin D3.
TPTX was performed on five-week old rats. Some of the individuals were subjected to sham operation (Sham). Individuals whose serum Ca concentration was less than 8 mg/dL on four days after the operation were selected for use as TPTX rats. On five days after the operation, the rats were assigned to eight TPTX groups and one Sham group (n=5, each group) based on their body weight and serum Ca concentration measured on four days after the operation. The solvent alone was orally administered to the Sham group and the TPTX-Vehicle group at a volume of 10 mL/kg. Each test article was orally administered individually to each TPTX test article group by dissolving it in a solvent at a dose of 30 mg/10 mL/kg. The solvent composition was 10% dimethylsulfoxide (Wako Pure Chemical Industries, Ltd.), 10% Cremophor EL (Sigma-Aldrich Japan LLC), 20% hydroxypropyl-β-cyclodextrin (Nihon Shokuhin Kako Co., Ltd.), glycine (Wako Pure Chemical Industries, Ltd.); and the pH was adjusted to 10. Immediately before administration of each sample, Pre-blood collection was performed, and blood collection was carried out at 2, 6, 10, and 24 hours after administration to measure the serum Ca concentration. Each blood collection was carried out from the jugular vein under isoflurane inhalation anesthesia.
Serum Ca measurement: Serum obtained by centrifugation from the collected blood was measured by using an automatic analyzer TBA-120FR (Toshiba Medical Systems Corporation).
For statistical analysis of the animal studies, data are shown as mean±standard error (SE). Statistical analysis were performed by unpaired test of the SAS Preclinical Package (Ver. 5.00.010720, SAS Institute Japan, Tokyo, Japan).

Where only a bound is given, the exact number is not on record here.

The source of these data is US9428505B2, “Hydantoin derivative” (Chugai Seiyaku Kabushiki Kaisha, priority 2012, dated 2016).

Chain of human PTH1R (Q03431 27-593): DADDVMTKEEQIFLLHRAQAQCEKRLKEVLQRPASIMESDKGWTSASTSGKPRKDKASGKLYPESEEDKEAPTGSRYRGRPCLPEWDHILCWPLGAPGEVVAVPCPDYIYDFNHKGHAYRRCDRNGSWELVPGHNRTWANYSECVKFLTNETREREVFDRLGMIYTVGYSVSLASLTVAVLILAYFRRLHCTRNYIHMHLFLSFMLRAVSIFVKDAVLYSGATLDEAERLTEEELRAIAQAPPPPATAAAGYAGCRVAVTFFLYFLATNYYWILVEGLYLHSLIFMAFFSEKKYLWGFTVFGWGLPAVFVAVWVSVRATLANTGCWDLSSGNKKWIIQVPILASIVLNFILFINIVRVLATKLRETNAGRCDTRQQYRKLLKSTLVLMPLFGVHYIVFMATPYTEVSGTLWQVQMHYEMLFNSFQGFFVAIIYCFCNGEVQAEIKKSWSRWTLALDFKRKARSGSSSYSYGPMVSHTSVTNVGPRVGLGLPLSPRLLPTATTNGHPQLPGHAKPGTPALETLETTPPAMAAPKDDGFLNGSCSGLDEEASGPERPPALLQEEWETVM

As to `Cc1cc(N2C(=O)NC(=O)C23CCCC3)cc(C)c1CCS(=O)(=O)N1CCC2(CC1)N=C(c1cccc(C(F)(F)F)c1)NC2=O` [Compound 12, 1-(3,5-dimethyl-4-(2-((4-oxo-2-(3-(trifluoromethyl)phenyl)-1,3,8-triazaspiro[4.5]deca-1-en-8-yl)sulfonyl)ethyl)phenyl)-1,3-diazaspiro[4.4]nonane-2,4-dione], in series [1], the microsomal CLint at 1 μM was determined as 63 µL/min/mg.
Consider `Cc1cc(N2C(=O)NC(=O)C2(C)C)cc(C)c1CCS(=O)(=O)N1CCC2(CC1)N=C(c1ccc(F)c(C(F)(F)F)c1)NC2=O` [Compound 3, 1-(4-(2-((2-(4-fluoro-3-(trifluoromethyl)phenyl)-4-oxo-1,3,8-triazaspiro[4.5]deca-1-en-8-yl)sulfonyl)ethyl)-3,5-dimethylphenyl)-5,5-dimethylimidazolidine-2,4-dione], for which the microsomal CLint at 1 μM in series [1] stood at 29 µL/min/mg. Moreover, in series [2], the hepatocyte CLint at 1 μM came to 17 µL/min/1e6 cells.
For the molecule `Cc1cc(N2C(=O)CNC2=O)cc(C)c1CCS(=O)(=O)N1CCC2(CC1)N=C(c1cccc(OC(F)(F)F)c1)NC2=O` [Comparative Example 2, reference compound], in series [3], the concentration for an effect of 20% (EC20) (in general, the point of the concentration-response curve where the effect stands at 20%) stood at 3.1 µM and the EC50 – broadly, the concentration at which the effect is half-maximal – was determined as 13 µM. Besides, the microsomal CLint at 1 μM in series [1] was found to be 61 µL/min/mg. For the same molecule, the hepatocyte CLint at 1 μM in series [2] came out at 5.9 µL/min/1e6 cells. For the same molecule, in series [4], the “achievement of therapeutic target range of serum Ca concentration of 7.6 to 8.8 mg/dL” value was “could not be achieved”. Also, in series [4] (up to 24 hours after administration), the “change of serum Ca concentration from the Pre-value” was “smaller positive changes from the Pre-value”.
Turning to `Cc1cc(N2C(=O)NC(=O)C2(C)C)cc(C)c1CCS(=O)(=O)N1CCC2(CC1)N=C(c1cccc(Br)c1)NC2=O` [Compound 2, 1-(4-(2-((2-(3-bromophenyl)-4-oxo-1,3,8-triazaspiro[4.5]deca-1-en-8-yl)sulfonyl)ethyl)-3,5-dimethylphenyl)-5,5-dimethylimidazolidine-2,4-dione], in series [3], the 20% effect concentration (EC20) amounted to 2.4 µM and the concentration for a half-maximal effect (EC50) was determined as 14 µM. For the same molecule, the microsomal CLint at 1 μM in series [1] worked out at 38 µL/min/mg. In series [2], the hepatocyte CLint at 1 μM was found to be 3 µL/min/1e6 cells; the “rat hepatocyte metabolic stability compared to Comparative Examples 1, 2, 3, 5, and 6” value is “increased”.
Taken in the same sequence, the figures for `Cc1cc(N2C(=O)NC(=O)C23CCN(C)CC3)cc(C)c1CCS(=O)(=O)N1CCC2(CC1)N=C(c1ccc(OC(F)(F)F)cc1)NC2=O` [Compound 9, 1-(3,5-dimethyl-4-(2-((4-oxo-2-(4-(trifluoromethoxy)phenyl)-1,3,8-triazaspiro[4.5]deca-1-en-8-yl)sulfonyl)ethyl)phenyl)-8-methyl-1,3,8-triazaspiro[4.5]decane-2,4-dione] were 2.6 µM, 12 µM, 28 µL/min/mg, 1.8 µL/min/1e6 cells and “increased”.
For `Cc1cc(N2C(=O)CNC2=O)cc(C)c1CCS(=O)(=O)N1CCC2(CC1)N=C(c1ccc(F)c(C(F)(F)F)c1)NC2=O` [Comparative Example 3, reference compound], in series [3], the EC20 stood at 2.0 µM and the EC50 was 9 µM. For the same molecule, the microsomal CLint at 1 μM in series [1] turned out to be 74 µL/min/mg. In addition, the hepatocyte CLint at 1 μM in series [2] was 22 µL/min/1e6 cells.
`CC[C@H]1CC[C@H](C2=NC3(CCN(S(=O)(=O)CCc4ccc(N5C(=O)NC(=O)C5C)cc4C)CC3)C(=O)N2)CC1` (some centres unmarked) [Comparative Example 5, reference compound]: the EC50 in series [3] was found to be 25 µM.
The same measure, in the same setting: then `CC[C@H]1CC[C@H](C2=NC3(CCN(S(=O)(=O)CCc4ccc(N5CC(=O)NC5=O)cc4C)CC3)C(=O)N2)CC1` [Comparative Example 4, reference compound], with greater than 1000 µM.
On to `Cc1cc(N2C(=O)NC(=O)C2(C)C)cc(C)c1CCS(=O)(=O)N1CCC2(CC1)N=C(c1ccc(OC(F)(F)F)c(F)c1)NC2=O` [Compound 4, 1-(4-(2-((2-(3-fluoro-4-(trifluoromethoxy)phenyl)-4-oxo-1,3,8-triazaspiro[4.5]deca-1-en-8-yl)sulfonyl)ethyl)-3,5-dimethylphenyl)-5,5-dimethylimidazolidine-2,4-dione], for which, in series [3], the EC20 amounted to 1.6 µM and the midpoint of the response, the EC50, lay at 7.4 µM. Further, the microsomal CLint at 1 μM in series [1] worked out at 27 µL/min/mg. Besides, in series [2], the hepatocyte CLint at 1 μM amounted to 2.2 µL/min/1e6 cells; the “rat hepatocyte metabolic stability compared to Comparative Examples 1, 2, 3, 5, and 6” value is recorded as “increased”.
Taken in the same sequence, the figures for `Cc1cc(N2C(=O)NC(=O)C2(C)C)cc(C)c1CCS(=O)(=O)N1CCC2(CC1)N=C(c1ccc3c(c1)OC(F)(F)O3)NC2=O` [Compound 5, 1-(4-(2-((2-(2,2-difluorobenzo[d][1,3]dioxol-5-yl)-4-oxo-1,3,8-triazaspiro[4.5]deca-1-en-8-yl)sulfonyl)ethyl)-3,5-dimethylphenyl)-5,5-dimethylimidazolidine-2,4-dione] were 1.7 µM, 8.1 µM, 37 µL/min/mg, 1 µL/min/1e6 cells and “increased”.
With `CC[C@H]1CC[C@H](C2=NC3(CCN(S(=O)(=O)CCc4ccc(N5C(=O)NC(=O)C5(C)C)cc4C)CC3)C(=O)N2)CC1` [Comparative Example 6, reference compound], in series [3], a half-maximal effect (EC50) was put at 32 µM.
Take `CCC1CCC(C2=NC3(CCN(S(=O)(=O)CCc4ccc(N5C(=O)NC(=O)C5(C)C)cc4C)CC3)C(=O)N2)CC1` (centres unmarked) [Comparative Example 6, reference compound]: the concentration for an effect of 20% (EC20) in series [3] came to 3.6 µM. Also, in series [1], the microsomal CLint at 1 μM is 154 µL/min/mg. The hepatocyte CLint at 1 μM in series [2] was 22 µL/min/1e6 cells.
`CCC1CCC(C2=NC3(CCN(S(=O)(=O)CCc4ccc(N5CC(=O)NC5=O)cc4C)CC3)C(=O)N2)CC1` (centres unmarked) [Comparative Example 4, reference compound] had a 20% effect concentration (EC20) in series [3] greater than 505 µM. Besides, in series [1], the microsomal CLint at 1 μM is 74 µL/min/mg.
In series [3], `CCC1CCC(C2=NC3(CCN(S(=O)(=O)CCc4ccc(N5C(=O)NC(=O)C5C)cc4C)CC3)C(=O)N2)CC1` (centres unmarked) [Comparative Example 5, reference compound] registered an EC20 of 3.1 µM. Further, the microsomal CLint at 1 μM in series [1] was 112 µL/min/mg. Moreover, in series [2], the hepatocyte CLint at 1 μM came to 22 µL/min/1e6 cells.
